Data from US20180318379A1, “INHIBITION OF TRIGGERING RECEPTOR EXPRESSED ON MYELOID CELLS 1 (TREM1) TO TREAT CENTRAL NERVOUS SYSTEM DISORDERS” (The Board of Trustees of the Leland Stanford Junior …, priority 2017, published 2018).

Tests used:
TREM1 [1] = assay: Neuroscore after MCAo-RP stroke in mice; type: in vivo; settings: 2 days after MCAo-RP; LP17 vs scrambled peptide; n=15-18 per group; ANOVA effect of LP17 p=0.008
TREM1 [2] = assay: FACS quantification of brain myeloid cells after MCAo-RP stroke; type: in vivo, mice
Method: FIG. 12. A representation of the dynamics of immune present at the indicated days after stroke (or the temporal dynamics of immune cell subsets). Stroke was modeled in […] 3 mo male mice using 45 minutes of middle cerebral artery occlusion (MCAo) followed by reperfusion (RP).
These plots show increased CD11b^+/CD45^lo microglia and reduced CD11b^+/CD45^hi macrophages with LP17 treatment.

[3] = 2 days after MCAo-RP, LP17 vs scrambled peptide

In the case of LQVTDSGLYRCVIYHPP [LP17], the neuroscores (TREM1 [1]) was “improved”, the “CD11b+/CD45hi macrophages in stroked hemisphere (FACS)” value (TREM1 [2]; [3]) was “reduced” and the “CD11b+/CD45lo microglia in stroked hemisphere (FACS)” value (TREM1 [2]; [3]) was “increased”. The “infiltration of macrophages after stroke” value (TREM1 [2]; after MCAo-RP stroke) was “reduces infiltration of macrophages”.
